Laboratory results taken from patent publication US9060966B2, “Use of 2,5-dihydroxybenzene derivatives for the treatment of arthritis and pain” (priority 2006, dated 2015).
“Also recorded” adds a separate entry of the source.

Assays:
[1] = test system: angiogenesis induced by Helicobacter pylori in the human gastric mucosa; assay: Angiogenesis induced by Helicobacter pylori in the human gastric mucosa (biopsies); assay type: in vivo; conditions: 500 mg/day oral, one week, one patient
Procedure: FIG. 5. Helicobacter pylori • A) Hematoxylin-eosin staining of the gastric mucosa of a sample obtained from a patient infected with Helicobacter pylori before treatment. The arrows and the asterisk indicate the formation of neovessels in the mucosa protruding the gastric lumen through the lost epithelial layer. • B) Hematoxylin-eosin staining of the gastric mucosa of a sample obtained from the same patient infected with Helicobacter pylori after administering 500 mg of 2,5-dihydroxybenzenesulfonate (DHBS) daily for a week.
A biopsy of the gastric mucosa was performed in a patient chronically infected with Helicobacter pylori before the oral treatment with 2,5-dihydroxybenzene sulfonic acid (Dobesilate) (500 mg/day). After a week of treatment, another biopsy was performed in the patient. Both biopsies were evaluated using hematoxylin-eosin staining. […] Microscopically, the arrows and the asterisk indicate the formation of neovessels in the mucosa protruding the gastric lumen through the lost epithelial layer. […] This example illustrates that the use of DHBS is beneficial in the treatment of gastritis and angiogenesis caused by the infection with Helicobacter pylori.

infantile hemangioma = assay: Topical treatment of infantile hemangioma in a child; assay type: in vivo, human; conditions: cream 2.5%, topical twice a day, 1, 2 and 3 months, one child
Description: Photographs of a child showing the effects of the topical treatment with a cream comprising 2,5-dihydroxybenzenesulfonic (DHBS) (2.5%) in a baby suffering infantile hemangioma.
The cream comprising 2,5-dihydroxybenzene sulfonic (2.5%) was topically applied twice a day for 3 months on the face of a child suffering from infantile hemangioma.

Nakagawa angioblastoma = assay: Topical treatment of Nakagawa angioblastoma (hemangioblastoma) in a child; assay type: in vivo, human; conditions: cream 2.5%, topical twice a day, 1 month, one child
Description: Photographs showing the effects of a topical treatment with a cream comprising 2,5-dihydroxybenzenesulfonic (DHBS) in a child suffering from Nakagawa angioblastoma.
The cream comprising 2,5-dihydroxybenzene sulfonic (2.5%) was topically applied twice a day during 1 month on the face of the child suffering from Nakagawa angioblastoma.

pterygium = assay: Topical treatment of pterygium in a patient; assay type: in vivo, human; conditions: 2.5% solution, one drop four times per day, two weeks
Description: FIG. 3. […] The treatment consists of the application of 4 drops of said solution daily, for two weeks.
The solution was applied topically to a patient suffering from unilateral pterygium, as one drop four times per day.

[2] = test system: intestinal inflammatory disease (IID) induced by DSS; assay: Intestinal inflammatory disease induced by dextran sulfate sodium in mice; assay type: in vivo; conditions: for disease clinical score (0 to 6 scale): first two DSS cycles
Procedure: (§1) The mice were subject to two 7-day cycles of exposure to dextran sulfate sodium (DSS) (from day 1 to 7 and from day 14 to 21) in the drinking water separated by 7 days in which regular water was provided (from 7 to 14). One group was treated with vehicle (0.9% NaCl), another with Solu-Medrol (10 mg/kg/day i.m.), and the other two groups with potassium 2,5-diacetoxybenzene sulfonate (DABS), one of them with 100 mg/kg/day i.p. and the other with 125 mg/kg/day, orally (p.o.). The body weight was normalized on day 0. Data are expressed as the mean±SD of the percentage of the basal weight (day 0) of 10 mice per group.
as §1, with “(p.o.)” for “(p.o.). The body weight was normalized on day 0.”, “clinical score” for “percentage”, “disease continuously obtained from” for “basal weight (day 0) of”, “per each” for “per”
The induction of the intestinal inflammatory disease described below is a representative model for the evaluation of therapeutic strategies to treat Crohn's disease and ulcerative colitis. 7-8 week old female mice of strain C57BL/6J-664 were used. The intestinal inflammatory disease (IID) was induced by feeding the mice with 3% dextran sulfate sodium (DSS; MW 40,000) dissolved in drinking water in 2 cycles. Each cycle consisted of 7 days with 3% DSS in the drinking water separated by 7 days with regular water. A daily clinical evaluation of the animals was performed in which the body weight, the consistency of the faeces and the presence of blood in the faeces were determined. Thus, the validated score of the clinical activity of the disease was evaluated with a 0 to 6 scale, considering the following parameters: consistency of the faeces, presence or absence of fecal blood and loss of weight.
At the end of the first cycle of exposure to DSS, the mice were divided into the following treatment groups: a first group was administered intraperitoneal (i.p) injections of vehicle (0.9% NaCl). Another group received intramuscular injections of Solu-Medrol, a standard IID treatment, at a dose of 10 mg/kg/day. A third group was administered i.p. injections of potassium 2,5-diacetroxybenzene sulfonate (DABS, 100 mg/kg/day). The last group was treated orally with 125 mg/kg day of DABS.

| Compound | angiogenic activity in the gastric mucosa [1] | appearance of gastric mucosa / epithelial membrane, hematoxylin-eosin [1] | symptoms of congestion and erythema of the gastric mucosa [1] | hemangioma lesion appearance (infantile hemangioma) | intensity of the coloration caused by the lesion (Nakagawa angioblastoma) | intensity of the coloration caused by the lesion (Nakagawa angioblastoma; listed as 2,5-dihydroxybenzene sulfonic) | pterygium (pterygium) | disease clinical score (0 to 6 scale) ([2]; 100 mg/kg/day i.p.) | disease clinical score (0 to 6 scale) ([2]; 125 mg/kg/day oral) | loss of weight produced by the two cycles of exposure to DSS ([2]; DABS 100 mg/kg/day i.p. or 125 mg/kg/day p.o., routes not distinguished) | efficacy compared with the standard treatment Solu-Medrol ([2]; body weight and clinical score, Solu-Medrol 10 mg/kg/day i.m.) |
| --- | --- | --- | --- | --- | --- | --- | --- | --- | --- | --- | --- |
| O=S(=O)(O)c1cc(O)ccc1O [DHBS, 2,5-dihydroxybenzenesulfonic acid] | less angiogenic activity | apparently normal; also recorded: normal appearance | the symptoms of congestion and erythema disappear | substantial recovery of the lesion | decrease in the intensity of the coloration | reduction in the intensity of the reddish coloration | partial reversal of the pterygium | – | – | – | – |
| CC(=O)Oc1ccc(OC(C)=O)c(S(=O)(=O)[O-])c1.[K+] [DABS, potassium 2,5-diacetoxybenzene sulfonate] | – | – | – | – | – | – | – | reduced | reduced | reduced | not lower (in some points it is higher) |
